{"source": "patent US20110287113A1", "about": "“TREATMENT OF PSORIASIS” (Insense Limited, priority 2009, published 2011)", "origin": "cited, not measured here", "key": {"[1]": {"details": "under normal conditions"}, "[2]": {"details": "at 25° C."}, "[3]": {"details": "under normal conditions", "remark": "listed apart in the source"}}}
{"smiles": "N[C@@H](CCC(=O)N[C@@H](CSN=O)C(=O)NCC(=O)O)C(=O)O", "note": "[S-nitrosoglutathione]", "values": [{"measurement": "time to total (100%) decomposition", "setting": "[1]", "value": "hours/days"}]}
{"smiles": "O=NO", "note": "[nitrite]", "values": [{"measurement": "pKa", "setting": "[2]", "value": 3.4}]}
{"smiles": "[N]=O", "note": "[NO, nitric oxide]", "values": [{"measurement": "maximum solubility in water", "setting": "[3]", "value": "approximately 1.7 mM"}]}
{"smiles": "N[C@@H](CSN=O)C(=O)O", "note": "[S-nitrosocysteine]", "values": [{"measurement": "time to total (100%) decomposition", "setting": "[1]", "value": "within minutes"}]}
